Key:
[1] = test system: PDE IV; assay: Inhibition of PDE isoenzymes: PDE IV (PDE4, cytosol of human neutrophils, cAMP substrate); type: biochemical
Description: PDE inhibition is then determined by the presence or absence of substrate degradation products. […] The relative ability of an inhibitory compound to slow or prevent the degradation of tritiated cyclic nucleotides is one test that is indicative of how well the compound in question selects one or more of each isoform to inhibit.
In practice, the in vitro selectivity of a PDE IV inhibitor may vary depending upon the condition under which the test is performed and on the inhibitors being tested. However, for the purposes of this specification, the selectivity of a PDE IV inhibitor can be measured as a ratio of the in vitro IC50 value for inhibition of any other isoform of the phosphodiesterase enzyme (Z) other than PDE IV, divided by the IC50 value for inhibition of PDE IV (PDE Z IC50/PDE IV IC50), where Z identifies any PDE other than PDE IV. As used herein, the term “IC50” refers to the concentration of a compound that is required to produce 50% inhibition of phosphodiesterase activity. […]
After preincubation for 5 min at 37° C., the reaction isstarted by the addition of substrate (cAMP or cGMP) and the assays are incubated for further 15 min at 37° C. […] The columns are elutedwith 2 ml of 30 mM ammonium formate (pH 6.0) and the eluate is counted for radioactivity. Results are corrected for blank values (measured in the presence of denatured protein) that are below 5% of total radioactivity. […]

[2] = test system: PDE I; settings: reported in Hatzelmann et al., JPET 297(1):267-279 (2001); read-out: IC50 for roflumilast activity on PDE I; cited from earlier work
[3] = test system: T1, PDE IV; settings: reported in Hatzelmann et al., JPET 297(1):267-279 (2001); read-out: IC50 for roflumilast activity on PDE IV; cited from earlier work
T1 construct: other: reported in Hatzelmann et al., JPET 297(1):267-279 (2001)

O=C(Nc1c(Cl)cncc1Cl)c1ccc(OC(F)F)c(OCC2CC2)c1 [roflumilast, 3-(cyclopropylmethoxy)-N-(3,5-dichloropyridin-4-yl)-4-(difluoromethoxy) benzamide]
selectivity for PDE IV as compared with PDE V (PDE V IC50/PDE IV IC50) ([1]; 8/0.0008): at least 10,000
selectivity for PDE IV as compared with PDE I (PDE I IC50/PDE IV IC50) ([1]; >10/0.0008): at least 12,500
IC50 [2]: > 10000 nM
IC50 [3]: 0.8 nM

Reference: US20060083714A1, “Combination of a pde iv inhibitor and a tnf-alpha antagonist” (priority 2003, published 2006)
